Reference: patent US20260297083A1, “SUBSTITUTED ACETYLENE COMPOUND DERIVATIVES AND THEIR PHARMACEUTICAL USE” (AVELOS THERAPEUTICS INC., priority 2023, published 2026)

System: DLD-1 BRCA2(−/−) Cell
Assay: Cell viability assay (Resazurin) in DLD1-BRCA2 cells
Assay type: cell-based
Settings: Homo sapiens, DLD-1, 336 h, 14 days, 1,500 cells/well, final DMSO 1%
How it was run: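 DLD1-BRCA2 KG cells seeded at 1,500/well (parental 600/well) in RPMI-1640 with 10% FBS, compound added after 4 h (1% DMSO), media replaced every 3-4 days over 14 days at 37° C. Viability read by resazurin (0.1 mg/ml, 4 h) fluorescence at Ex/Em 560/590 nm; IC50 fitted.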

Row | Compound | IC50 [nM]
1 | Cc1cc(C(F)(F)F)cc(N2[C@H](C(=O)N(CC#Cc3cnc(N4C5CCC4COC5)cn3)c3ccc(F)c(C)c3)CCS2(=O)=O)n1 [Example 49, (3S)-N-(3-(5-(3-oxa-8-azabicyclo[3.2.1]octan-8-yl)pyrazin-2-yl)prop-2-yn-1-yl)-N-(4-fluoro-3-methylphenyl)-2-(6-methyl-4-(trifluoromethyl)pyridin-2-yl)isothiazolidine-3-carboxamide 1,1-dioxide] | < 1000
2 | Cc1cc(C(F)(F)F)cc(N2[C@H](C(=O)N(CC#Cc3cnc4c(c3)C(=O)N(C)C4=O)c3ccc(F)c(C)c3)CCS2(=O)=O)n1 [Example 100, (S)-N-(4-fluoro-3-methylphenyl)-2-(6-methyl-4-(trifluoromethyl)pyridin-2-yl)-N-(3-(6-methyl-5,7-dioxo-6,7-dihydro-5H-pyrrolo[3,4-b]pyridin-3-yl)prop-2-yn-1-yl)isothiazolidine-3-carboxamide 1,1-dioxide] | > 5100
3 | Cc1cc(C(F)(F)F)cc(N2[C@H](C(=O)N(CC#Cc3cccc(OC(F)F)n3)c3ccc(F)c(C)c3)CCS2(=O)=O)n1 [Example 89, (S)-N-(3-(6-(difluoromethoxy)pyridin-2-yl)prop-2-yn-1-yl)-N-(4-fluoro-3-methylphenyl)-2-(6-methyl-4-(trifluoromethyl)pyridin-2-yl)isothiazolidine-3-carboxamide 1,1-dioxide] | 1100 to 5000
4 | Cc1cc(C(F)(F)F)cc(N2[C@H](C(=O)N(CC#Cc3cccc(C(N)=O)c3)c3ccc(F)c(C)c3)CCS2(=O)=O)n1 [Example 106, (S)-N-(3-(3-carbamoylphenyl)prop-2-yn-1-yl)-N-(4-fluoro-3-methylphenyl)-2-(6-methyl-4-(trifluoromethyl)pyridin-2-yl)isothiazolidine-3-carboxamide 1,1-dioxide] | 1100 to 5000
5 | Cc1cc(C(F)(F)F)cc(N2[C@H](C(=O)N(CC#Cc3ncc(N4CCOCC4)cn3)c3ccc(F)c(C)c3)CCS2(=O)=O)n1 [Example 79, (S)-N-(4-fluoro-3-methylphenyl)-2-(6-methyl-4-(trifluoromethyl)pyridin-2-yl)-N-(3-(5-morpholinopyrimidin-2-yl)prop-2-yn-1-yl)isothiazolidine-3-carboxamide 1,1-dioxide] | < 1000
6 | Cc1cc(C(F)(F)F)cc(N2[C@H](C(=O)N(CC#Cc3cccc(N4CCOCC4)n3)c3ccc(F)c(C)c3)CCS2(=O)=O)n1 [Example 86, (S)-N-(4-fluoro-3-methylphenyl)-2-(6-methyl-4-(trifluoromethyl)pyridin-2-yl)-N-(3-(6-morpholinopyridin-2-yl)prop-2-yn-1-yl)isothiazolidine-3-carboxamide 1,1-dioxide] | < 1000
7 | Cc1ccc(F)c(N(CC#Cc2cnc(N3CCOCC3)cn2)C(=O)[C@H]2CCS(=O)(=O)N2c2cc(C(F)(F)F)cc(C)n2)c1 [Example 41, (R)-N-(2-fluoro-5-methylphenyl)-2-(6-methyl-4-(trifluoromethyl)pyridin-2-yl)-N-(3-(5-morpholinopyrazin-2-yl)prop-2-yn-1-yl) isothiazolidine-3-carboxamide 1,1-dioxide] | > 5100
8 | Cc1cc(C(F)(F)F)cc(N2[C@H](C(=O)N(CC#Cc3cnc(C(=O)N4CCOCC4)cn3)c3ccc(F)c(C)c3)CCS2(=O)=O)n1 [Example 69, (S)-N-(4-fluoro-3-methylphenyl)-2-(6-methyl-4-(trifluoromethyl)pyridin-2-yl)-N-(3-(5-(morpholine-4-carbonyl)pyrazin-2-yl)prop-2-yn-1-yl)isothiazolidine-3-carboxamide 1,1-dioxide] | < 1000
9 | Cc1cc(C(F)(F)F)cc(N2C(=O)CC[C@H]2C(=O)N(CC#Cc2ccc(N)nn2)c2ccc(F)c(C)c2F)n1 [Example 2, (S)-N-(3-(6-aminopyridazin-3-yl)prop-2-yn-1-yl)-N-(2,4-difluoro-3-methylphenyl)-1-(6-methyl-4-(trifluoromethyl)pyridin-2-yl)-5-oxopyrrolidine-2-carboxamide] | < 1000
